Results on three molecules are retold here after ChEMBL document CHEMBL1129339, “Mapping the aspartic acid binding site of Escherichia coli asparagine synthetase B using substrate analogs” (J Med Chem, 1996).

The test system of assay [1] is Asparagine synthetase B (Escherichia coli). The assay is described as follows: Competitive Inhibition constant of Asparagine synthetase of Glutamine-Dependent Synthetase Activity using aspartate as substrate.
For assay [2] the test system is unchanged. In words: Uncompetitive Inhibition constant of Asparagine synthetase of Glutamine-Dependent Synthetase Activity using glutamine as substrate.
The test system is the same in assay [3]. The assay is described as follows: Noncompetitive Inhibition constant of Asparagine synthetase of Glutamine-Dependent Synthetase Activity using ATP as substrate.
Assay [4] shares this test system. In words: Noncompetitive Inhibition constant of Asparagine synthetase of Glutamine-Dependent Synthetase Activity using glutamine as substrate.
The test system is the same in assay [5]. The assay is described as follows: Noncompetitive Inhibition constant of Asparagine synthetase of Glutamine-Dependent Synthetase Activity using aspartate as substrate.
The test system is the same in assay [6]. The assay is described as follows: Non competitive Inhibition constant of Asparagine synthetase of Glutamine-Dependent Synthetase Activity using ATP as substrate.
Assay [7] has the same test system. The assay is described as follows: Non competitive Inhibition constant of Asparagine synthetase of Glutamine-Dependent Synthetase Activity using glutamine as substrate.

In the case of `O=C(O)[C@H]1NCC[C@H]1C(=O)O`, the Kis in assay [1] and in assay [3] was 2.65 mM throughout. The Kii came to 2.57 mM in assay [2] and 4.8 mM in assay [3].

Consider `C[C@H](C(=O)O)[C@H](N)C(=O)O`, for which the Kii in assay [4] was 16.5 mM; in assay [5], greater than 50 mM; in assay [3], 15 mM. Moreover, the results for the Kis in assay [4], in assay [5] and in assay [3] were 93 mM, 18 mM and 8 mM, respectively.

For `C[C@@H](C(=O)O)[C@H](N)C(=O)O` (single isomer, unassigned), the Kis in assay [1] turned out to be 0.25 mM; in assay [6] it was 0.45 mM; in assay [7], 1.62 mM. For the same molecule, the Kii in assay [6] was determined as 3.28 mM; in assay [7], 1.71 mM.
